Usually IC50 stands for the concentration that inhibits the measured activity by half. One may read the inhibition as the drop in the measured response relative to a control, in per cent.

The target in assay [1] is T1, porcine pancreatic lipase (PPL) (Sus scrofa, UniProt P00591).
T1 sequence (P00591 1-450): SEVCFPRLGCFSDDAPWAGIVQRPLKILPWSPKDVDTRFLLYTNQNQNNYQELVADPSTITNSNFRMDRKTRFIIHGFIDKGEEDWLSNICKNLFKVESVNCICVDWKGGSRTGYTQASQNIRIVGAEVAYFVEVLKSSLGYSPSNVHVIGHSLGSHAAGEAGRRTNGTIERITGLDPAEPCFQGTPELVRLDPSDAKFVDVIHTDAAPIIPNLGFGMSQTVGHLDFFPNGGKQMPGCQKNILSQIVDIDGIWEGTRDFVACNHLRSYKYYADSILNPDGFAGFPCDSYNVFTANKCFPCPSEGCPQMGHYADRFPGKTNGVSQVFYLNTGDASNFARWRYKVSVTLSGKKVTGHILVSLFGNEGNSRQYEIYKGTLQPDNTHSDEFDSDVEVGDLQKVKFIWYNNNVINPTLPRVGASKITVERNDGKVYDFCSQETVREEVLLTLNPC
The assay can be described thus: In vitro porcine pancreatic lipase inhibition assay (p-NPB substrate). It is filed as biochemical. On the procedure:
For lipase inhibition tests of each compound, porcine pancreatic lipase was used. p-Nitrophenyl butyrate (p-NPB) was used as the substrate. First, 5 μL of the lipase solution (40 U/mL) in Tris–HCl buffer (100 mM Tris–HCl, 5 mM CaCl2; pH 7.0) was added to a 96-well microtiter plate. Each compound in 1 μL of DMSO and 184 μL of Tris–HCl buffer were added and mixed with the enzyme buffer to start the reaction. After incubation at 37 °C for 15 min, 10 μL of the substrate solution (10 mM p-NPB in dimethyl formamide) was added. The enzymatic reaction was carried out for 15 min at 37 °C. The hydrolysis of p-NPB to p-nitrophenol was monitored at 400 nm using a spectrophotometer.

Assay [2] concerns rabbit platelet aggregation induced by collagen. The assay can be described thus: Rabbit platelet aggregation induced by collagen. Format: cell-based. As to conditions: collagen 4 μg/mL; for IC50: Oryctolagus cuniculus, Platelet, read-out: IC50 against rabbit platelet aggregation induced by collagen. On the procedure: (§1) Compounds 1–15 and 1a were also evaluated for their inhibitory activity against rabbit platelet aggregation induced by thrombin (1 U/mL), platelet-activating factor (PAF, 0.4 μg/mL), arachidonate (AA, 0.5 mM), or collagen (4 μg/mL).
(§2) The inhibitory effects of the compounds against rabbit platelet aggregation induced by thrombin (1 U/mL), PAF (0.4 μg/mL), AA (0.5 mM), or collagen (4 μg/mL) were evaluated according to published methods.

Assay [3] relates to rabbit platelet aggregation induced by arachidonate (AA). The assay can be described thus: Rabbit platelet aggregation induced by arachidonate (AA). The settings on record: Oryctolagus cuniculus, AA 0.5 mM. It is filed as cell-based. On the procedure:
as §1, §2

Converted amounts (≈) assume the structure as drawn.

In turn, “7-oxo-β-sitosterol 3-O-β-D-glucopyranoside [Compound 4]” showed a PPL inhibition in assay [1] (at a concentration of 100 μg/mL) of 12 ± 2%.

As to `Cc1cc(OC2OC(COC(=O)C=Cc3ccc(O)cc3)C(O)C(O)C2O)cc(=O)o1` (centres unmarked) [Compound 1, cuscutaroside A], the IC50 in assay [2] was determined as 291 ± 47.9 µg/mL (≈ 671 µM).

With `CC(=O)Oc1ccc(/C=C/C(=O)OC[C@H]2O[C@@H](Oc3cc(C)oc(=O)c3)[C@H](OC(C)=O)[C@@H](OC(C)=O)[C@@H]2OC(C)=O)cc1` [Compound 1a], the IC50 in assay [3] (read-out: IC50 against rabbit platelet aggregation induced by AA) worked out at 72.6 ± 10.5 µg/mL (≈ 120 µM); in assay [2], 63.8 ± 4.4 µg/mL (≈ 106 µM).

Consider `CCC(CCC(C)C1CCC2C3C(OC)C=C4CC(OC5OC(CO)C(O)C(O)C5O)CCC4(C)C3CCC12C)C(C)C` (stereo not drawn) [Compound 3, 7β-methoxy-β-sitosterol 3-O-β-glucopyranoside], for which the IC50 in assay [1] (porcine pancreatic lipase, p-NPB substrate, read-out: PPL inhibitory activity IC50 (converted)) is 111 µM.

In the case of `CC(=O)Oc1ccccc1C(=O)O` [aspirin, reference compound], the inhibition at 40 µg/mL in assay [3] (at 40 μg/mL) came out at 88.1 ± 1.1%. The IC50 in assay [2] was found to be 33.3 ± 1.3 µg/mL (≈ 185 µM).

For the molecule scrophenoside B [Compound 8], in assay [2], the “IC50 against rabbit platelet aggregation induced by collagen” value amounted to 180.5 ± 6.7 µg/mL.
